One assay addresses T1, androgen receptor (Rattus norvegicus, UniProt P15207).
T1 construct: the prostates are removed, weighed and homogenized at 0° C; from tissue; host or cells: prostate cytosol (209,000 g supernatant) of castrated male Sprague Dawley rats
T1 sequence (P15207 1-902): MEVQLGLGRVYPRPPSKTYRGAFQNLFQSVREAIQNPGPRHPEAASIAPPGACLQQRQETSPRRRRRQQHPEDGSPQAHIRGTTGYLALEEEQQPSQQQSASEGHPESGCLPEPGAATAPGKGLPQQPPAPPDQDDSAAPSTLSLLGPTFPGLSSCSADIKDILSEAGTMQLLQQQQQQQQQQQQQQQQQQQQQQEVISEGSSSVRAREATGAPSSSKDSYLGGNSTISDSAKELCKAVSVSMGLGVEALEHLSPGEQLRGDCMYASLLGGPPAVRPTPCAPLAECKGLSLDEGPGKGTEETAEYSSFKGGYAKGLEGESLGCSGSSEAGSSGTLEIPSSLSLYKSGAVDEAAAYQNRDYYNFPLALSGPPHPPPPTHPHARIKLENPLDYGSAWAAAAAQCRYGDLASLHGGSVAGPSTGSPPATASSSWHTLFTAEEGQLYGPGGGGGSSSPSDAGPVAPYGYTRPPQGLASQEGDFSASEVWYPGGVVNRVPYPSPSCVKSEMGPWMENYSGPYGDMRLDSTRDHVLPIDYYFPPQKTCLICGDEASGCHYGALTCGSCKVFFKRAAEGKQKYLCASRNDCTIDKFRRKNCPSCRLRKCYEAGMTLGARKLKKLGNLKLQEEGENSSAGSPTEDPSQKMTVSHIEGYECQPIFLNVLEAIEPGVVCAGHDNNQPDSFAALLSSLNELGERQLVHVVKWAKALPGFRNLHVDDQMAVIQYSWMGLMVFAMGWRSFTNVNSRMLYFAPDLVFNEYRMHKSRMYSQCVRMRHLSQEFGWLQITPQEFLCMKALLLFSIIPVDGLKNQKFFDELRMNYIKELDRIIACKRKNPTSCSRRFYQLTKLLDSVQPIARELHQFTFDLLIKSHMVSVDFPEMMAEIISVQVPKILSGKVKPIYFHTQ
The assay can be described thus: Study of the affinity of the products of the invention for the androgen receptor (displacement of tritiated testosterone, rat prostate cytosol). The class given is binding, Male Sprague Dawley EOPS rats. Particulars: Incubation: 24 hours, 0° C., RBA=100 (CH)/(CX), testosterone = 100. As to the method:
1) Study of the affinity of the products of the invention for the androgen receptor
Male Sprague Dawley EOPS rats weighing 180-200 g, castrated 24 hours previously, are sacrificed, the prostates are removed, weighed and homogenized at 0° C. using a Potter glass, in a buffered solution (10 mM Tris, 0.25M saccharose, 0.1 mM PMSF (phenylmethanesulphonylfluoride), 20 mM sodium molybdate, HCl pH 7.4) to which is added extemporaneously 2 mM of DTT (DL dithiothreitol), at the rate of 1 g of tissue per 8 ml of buffer.
The homogenate is then ultracentrifuged at 0° C., for 30 minutes at 209,000 g. […] Calculation of the relative bond affinity (RBA).
The following 2 curves are drawn: the percentage of the bound tritiated hormone B/T as a function of the logarithm of the concentration of the unlabelled reference hormone and B/T as a function of the logarithm of the concentration of the unlabelled product tested. The straight line of the equation I50 =(B/Tmax+B/Tmin)/2 is determined. B/Tmax=% of the bound tritiated hormone for an incubation of this tritiated hormone at the concentration (T). B/Tmin=% of the bound tritiated hormone for an incubation of this tritiated hormone at the concentration (T) in the presence of a large excess of unlabelled hormone (2500.10^-9 M).
The intersections of the straight line I50 and the curves enable the concentrations of the unlabelled reference hormone (CH) and of the unlabelled tested product (CX) which inhibit by 50% the binding of the tritiated hormone on the receptor to be evaluated.

Assay [1] relates to renal ornithine decarboxylase (ODC). The assay can be described thus: Determination of the androgen or anti-androgen activity using dosage of ornithine decarboxylase (ODC) in castrated mice receiving testosterone propionate. It is filed as in vivo, male SWISS mice. Particulars: percutaneous route, 1.5 mg/kg in 10 μl; testosterone propionate 3 mg/kg sub-cutaneous; kidneys 20 hours after treatment. As to the method: 2) Determination of the androgen or anti-androgen activity of the products of the invention using dosage of ornithine decarboxylase (ODC).
20 hours after the treatments, the animals are sacrificed, the kidneys are removed, then homogenized at 0° C., using a teflon glass grinder in 10 volumes of Tris-HCl 50 mM (pH 7.4) buffer containing 250 μM of pyridoxal phosphate, 0.1 mM EDTA, and 5 mM of dithiothreitol. The homogenate is then centrifuged at 209,000 g for 30 minutes.
At 37° C., renal ornithine decarboxylase converts an isotopic mixture of unlabelled ornithine and tritiated ornithine into unlabelled putrescine and tritiated putrescine.
The putrescine is then collected on selective ion-exchange papers. After drying, the excess unconverted tritiated and unlabelled ornithine is eliminated by washing 3 times with 0.1M of ammonium hydroxide. The papers are dried, then the radioactivity is counted after addition of scintillating Aqualite.
The results are expressed as fmoles (10^-15 M) of tritiated putrescine formed/hour/mg of proteins.
Test: the products are administered by percutaneous route at 1.5 mg/kg in a volume of 10 μl.

Turning to `CN1C(=O)N(c2ccc(C#N)c(C(F)(F)F)c2)C(=O)C1(C)CF` (centres unmarked) [Example 6], the “relative bond affinity (RBA)” value on androgen receptor is reported as 16. Moreover, the “% of inhibition of the ODC of the controls receiving only testosterone propionate” value in assay [1] is given as 84%.

Consider `N#Cc1ccc(N2C(=O)NC(CO)(CO)C2=O)cc1C(F)(F)F` [Example 26, 4-(4,4-bis(hydroxymethyl)-2,5-dioxo-1-imidazolidinyl)-2-(trifluoromethyl)-benzonitrile], for which the “relative bond affinity (RBA)” value at androgen receptor worked out at 4. `CC1(CO)C(=O)N(c2ccc(C#N)c(C(F)(F)F)c2)C(=O)N1CCF` (centres unmarked) [Example 3, 4-(2,5-dioxo 3-(2-fluoroethyl) 4-(hydroxymethyl) 4-methyl 1-imidazolidinyl)2-(trifluoromethyl) benzonitrile]: the “relative bond affinity (RBA)” value on androgen receptor is on record as 6. In addition, in assay [1], the “% of inhibition of the ODC of the controls receiving only testosterone propionate” value amounted to 47%.

Values taken from patent publication US5750553A, “Optionally substituted phenylimidazolidines, their preparation process and intermediates, their use as medicaments and the pharmaceutical compositions containing them” (Roussel Uclaf, priority 1994, dated 1998).
